In this experiment the target is T1, rhCRTh2 (Homo sapiens, UniProt Q9Y5Y4).
T1 construct: expressed in transfected cells; expression induced with sodium butyrate; membrane preparation
T1 sequence (Q9Y5Y4 1-395): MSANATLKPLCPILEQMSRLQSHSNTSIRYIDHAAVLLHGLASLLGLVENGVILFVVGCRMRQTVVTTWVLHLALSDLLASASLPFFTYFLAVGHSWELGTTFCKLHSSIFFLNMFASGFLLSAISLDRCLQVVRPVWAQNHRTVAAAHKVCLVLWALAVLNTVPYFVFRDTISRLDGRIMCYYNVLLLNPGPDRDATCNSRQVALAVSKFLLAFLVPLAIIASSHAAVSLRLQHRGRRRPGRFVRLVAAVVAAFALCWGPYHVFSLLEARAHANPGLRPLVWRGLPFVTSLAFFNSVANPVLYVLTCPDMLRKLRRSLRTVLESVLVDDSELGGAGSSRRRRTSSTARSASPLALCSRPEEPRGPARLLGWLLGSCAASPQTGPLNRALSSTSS
Description: Ligand binding assay, [3H]PGD2 SPA on HEK cell membranes. Conditions: [3H]PGD2 displacement; membranes of HEK cells expressing rhCRTh2/Gα16; SPA beads; 2 h at RT; read-out: pIC50 value (converted). Here is the method: [^3H]PGD2 was purchased from Perkin Elmer Life Sciences with a specific activity of 100-210 Ci/mmol. All other chemicals were of analytical grade.
HEK cells expressing rhCRTh2/Gα16 were routinely maintained in DMEM containing 10% Foetal Bovine Serum (HyClone), 1 mg/ml geneticin, 2 mM L-glutamine and 1% non-essential amino acids. For the preparation of membranes, the adherent transfected HEK cells were grown to confluence in two layer tissue culture factories (Fisher, catalogue number TKT-170-070E). Maximal levels of receptor expression were induced by addition of […] sodium butyrate for the last 18 h of culture. The adherent cells were washed once with phosphate buffered saline (PBS, 50 ml per cell factory) and detached by the addition of 50 ml per cell factory of ice-cold membrane homogenisation buffer [20 mM HEPES (pH 7.4), 0.1 mM dithiothreitol, 1 mM EDTA, 0.1 mM phenyl methyl sulphonyl fluoride and 100 μg/ml bacitracin]. […] The final pellet was re-suspended in 4 ml of membrane homogenisation buffer per cell factory used and the protein content determined. […]
All assays were performed in Corning clear bottomed, white 96-well NBS plates (Fisher). […] (The optimum coating concentrations were determined for each batch of membranes) The beads were pelleted by centrifugation (800×g for 7 minutes at 4° C.), washed once with assay buffer (50 mM HEPES pH 7.4 containing 5 mM magnesium chloride) and finally re-suspended in assay buffer at a bead concentration of 10 mg/ml.
Each assay contained 20 μl of 6.25 nM [^3H]PGD2, 20 μl membrane saturated SPA beads both in assay buffer and 10 μl of compound solution or 13,14-dihydro-15-keto prostaglandin D2 (DK-PGD2, for determination of non-specific binding, Cayman chemical company). […] The assay plate was incubated at RT for 2 h and counted on a Wallac Microbeta liquid scintillation counter (1 minute per well).
Regarding `C[C@H]1CN(Cc2cc(Cl)ccc2CCC(=O)O)CCN1C(=O)Cc1ccccc1` [Example 4, 3-(4-chloro-2-{[(3S)-3-methyl-4-(phenylacetyl)piperazin-1-yl]methyl}phenyl)propanoic acid], the IC50 was 79.4 nM.
The value for `C[C@H]1CN(Cc2cc(Cl)ccc2CC(=O)O)CCN1C(=O)Cc1ccc(F)cc1F` [Example 12, [4-chloro-2-({(3S)-4-[(2,4-difluorophenyl)acetyl]-3-methylpiperazin-1-yl}methyl)phenyl]acetic acid] was 7.94 nM; that for `C[C@H]1CN(Cc2cc(Cl)ccc2CC(=O)O)CCN1S(=O)(=O)c1ccccc1` [Example 9, (4-chloro-2-{[(3S)-3-methyl-4-(phenylsulfonyl)piperazin-1-yl]methyl}phenyl)acetic acid] was 14.1 nM.

For the origin of these results see patent US20080255150A1, “Novel Compounds” (ASTRAZENECA AB, priority 2005, published 2008).
